Test results taken from PMC9607599, “Dual Targeting Ligands—Histamine H3 Receptor Ligands with Monoamine Oxidase B Inhibitory Activity—In Vitro and In Vivo Evaluation” (Pharmaceutics, 2022).
“And” between values parts separate entries of the source, which are not always exact repeats. Equal values may be shown once.

Legend:
[1] = target: T1, MAO A in rat cerebral cortex (Rattus norvegicus, UniProt P21396); assay: MAO A activity in cerebral cortex homogenates after sub-chronic administration (radioassay); type: in vivo; conditions: 3 mg/kg/day s.c. for 6 days
T1 construct: from tissue; host or cells: cerebral cortex homogenate of male Wistar rats
T1 sequence (P21396 1-526): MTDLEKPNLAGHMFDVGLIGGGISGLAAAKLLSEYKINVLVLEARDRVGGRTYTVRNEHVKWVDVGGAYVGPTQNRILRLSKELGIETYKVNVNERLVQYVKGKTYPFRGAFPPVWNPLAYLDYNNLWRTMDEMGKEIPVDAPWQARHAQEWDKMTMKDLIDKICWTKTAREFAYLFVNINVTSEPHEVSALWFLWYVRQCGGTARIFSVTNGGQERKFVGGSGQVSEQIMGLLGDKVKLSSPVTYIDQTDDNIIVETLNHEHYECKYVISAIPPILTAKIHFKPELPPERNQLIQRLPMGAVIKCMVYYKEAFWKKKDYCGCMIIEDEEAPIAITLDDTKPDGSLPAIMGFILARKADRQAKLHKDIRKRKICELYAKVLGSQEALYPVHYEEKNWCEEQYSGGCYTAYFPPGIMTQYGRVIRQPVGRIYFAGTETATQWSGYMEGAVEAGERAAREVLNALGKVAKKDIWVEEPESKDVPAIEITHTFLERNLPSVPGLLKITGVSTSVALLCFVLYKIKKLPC
Method: (§1) The compound 13 was given to intact Wistar rats to verify its impact on the metabolism of biogenic amines in the brain (cerebral amines and their metabolites concentrations as well as activities of metabolizing enzymes). […] Both drugs (3 mg/kg body mass, dissolved in 0.9% NaCl) were given subcutaneously for 6 consecutive days. Control rats were injected with 200 μL of 0.9% NaCl.
(§2) Tissues were collected and properly prepared for subsequent biochemical analyzes. The brain was quickly removed from the skull and the selected structures (hypothalamus, striatum, cerebral cortex) were dissected according to the method by Glowinsky and Iversen, immediately frozen in liquid nitrogen and kept at −80 °C until assayed.
(§3) MAO A and MAO B activities were estimated in cerebral homogenates with radioassays using 5-[2-^14C]-hydroxytryptamine binoxalate (final conc. 200 µM) and β-[ethyl-1-^14C]-phenylethylamine hydrochloride (final conc. 20 µM), as well as specific inhibitors—clorgyline and deprenyl (final conc. 10^−9 M), respectively.
(§4) The enzyme activities are expressed as pmol/min/mg protein. Protein concentration was analyzed by Lowry’s method.

[2] = target: T2, MAO B in rat cerebral cortex (Rattus norvegicus, UniProt P19643); assay: MAO B activity in cerebral cortex homogenates after sub-chronic administration (radioassay); type: in vivo; conditions: 3 mg/kg/day s.c. for 6 days
T2 construct: from tissue; host or cells: cerebral cortex homogenate of male Wistar rats
T2 sequence (P19643 1-520): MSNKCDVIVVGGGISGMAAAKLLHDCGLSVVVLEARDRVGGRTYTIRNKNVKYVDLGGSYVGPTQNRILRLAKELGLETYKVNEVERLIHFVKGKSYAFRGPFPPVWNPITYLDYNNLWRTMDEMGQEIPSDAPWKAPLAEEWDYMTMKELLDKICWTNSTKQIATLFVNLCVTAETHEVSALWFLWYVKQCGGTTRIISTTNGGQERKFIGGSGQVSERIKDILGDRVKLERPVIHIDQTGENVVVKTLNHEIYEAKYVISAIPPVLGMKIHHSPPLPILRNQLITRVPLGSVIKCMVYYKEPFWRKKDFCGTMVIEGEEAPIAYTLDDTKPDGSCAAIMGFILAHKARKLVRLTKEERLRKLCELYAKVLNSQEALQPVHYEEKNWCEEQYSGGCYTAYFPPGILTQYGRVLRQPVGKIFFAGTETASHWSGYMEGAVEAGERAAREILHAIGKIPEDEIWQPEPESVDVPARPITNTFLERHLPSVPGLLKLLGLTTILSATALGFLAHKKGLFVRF
Method: as §1, §2, §3, §4

[3] = target: T3, human MAO B (hMAO B) (Homo sapiens, UniProt P27338); assay: fluorometric MAO assay (p-tyramine substrate); type: biochemical; conditions: fluorometric MAO assay; mean ± SEM of 2–4 independent experiments
T3 sequence (P27338 1-520): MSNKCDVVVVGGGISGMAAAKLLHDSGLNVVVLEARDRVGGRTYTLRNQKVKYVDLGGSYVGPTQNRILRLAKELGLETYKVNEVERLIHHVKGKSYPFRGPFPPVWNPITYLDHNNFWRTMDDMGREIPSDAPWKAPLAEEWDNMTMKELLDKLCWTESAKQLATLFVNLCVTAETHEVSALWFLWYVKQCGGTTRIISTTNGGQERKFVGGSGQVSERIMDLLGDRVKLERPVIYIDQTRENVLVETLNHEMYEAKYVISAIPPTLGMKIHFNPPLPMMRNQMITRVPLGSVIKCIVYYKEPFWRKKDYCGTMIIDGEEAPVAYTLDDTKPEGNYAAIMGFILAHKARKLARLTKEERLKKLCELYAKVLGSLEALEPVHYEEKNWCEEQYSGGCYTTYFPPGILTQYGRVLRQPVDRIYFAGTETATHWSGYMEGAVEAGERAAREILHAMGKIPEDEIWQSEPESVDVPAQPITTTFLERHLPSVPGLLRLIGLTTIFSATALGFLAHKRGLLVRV
Method: The precise method was described in [6]. First, compounds 4–32 were screened for hMAO B inhibitory activity at 1 μM concentration by the fluorometric method. Para-tyramine (200 μM) was used as a substrate for the enzyme and safinamide (1 μM) was used as a reference compound. […] Each experiment was performed in duplicate.
All compounds were first screened for hMAO B inhibitory activity at the concentration of 1 μM. […] Based on the results, we selected compounds 9 and 13 for further analysis.

[4] = target: T3, human MAO B (hMAO B); assay: modality of hMAO B inhibition (Michaelis-Menten / Lineweaver-Burk); type: biochemical
Method: Modality of hMAO B inhibition was evaluated for compounds 9 and 13 and the reference safinamide according to the method described previously. Three concentrations of inhibitors, corresponding to their IC20, IC50 and IC80 values, were used. Each experiment was performed in triplicate. KM and Vmax values were calculated from Michaelis–Menten curves by nonlinear regression from the substrate. Lineweaver–Burk plots were calculated using linear regression in GraphPad Prism 6.07 (GraphPad Software, San Diego, CA, USA).
For testing modality of enzyme inhibition, we used three concentrations of inhibitors that corresponded to their IC20, IC50 and IC80 values. Substrate (p-tyramine) was used at concentrations: 0.05, 0.1, 0.5, 1.0, 1.5 and 2.0 mM.

[5] = target: T4, MAO B (Homo sapiens, UniProt P27338); assay: reversibility of MAO B inhibition (reactivation by excess p-tyramine, with/without preincubation); type: biochemical; conditions: inhibitor at IC80
T4 sequence (P27338 1-520): T3 sequence (P27338 1-520)
Method: The reversibility of the MAO inhibition was tested as described in [6, 7]. […] Two variants of experiment were performed. […] After 22 min, the concentration of the substrate was increased to 200 µM and the signal was measured for 5 h.

[6] = inhibitor at IC20, IC50, IC80, p-tyramine 0.05–2.0 mM

SMILES	MAO A activity vs control, in words [1]	MAO B activity vs control, in words [2]	IC50 [3] [nM]	Affinity (free enzyme vs enzyme-substrate complex) [4]	Mode of inhibition from kinetic values and LB plot [4]	Lines on LB plot ([4]; Lineweaver–Burk double-reciprocal plot)	app. KM [4, 6]	app. Vmax [4, 6]	app. Vmax/app. KM [4, 6]	effect of 30 min preincubation on inhibition (preincubated vs non-preincubated) [5]	reversibility of MAO B inhibition ([5]; excess p-tyramine 200 µM)	inhibition at 3 mg/kg ([1]; rat, sc, data not shown) [%]	MAO B activity in cerebral cortex [2] [pmol/min/mg protein]	decline in MAO B activity in rat cerebral cortex ([2]; vs control)
Clc1ccc(CCCOCCCN2CCCCC2)cc1 [Pitolisant, 3-(4-chlorophenyl)propyl 3-piperidinopropyl ether, reference compound]	close to that recorded in control animals	close to that recorded in control animals												
CC1CCCN1CCCOc1ccc(C(C)(C)C)cc1.O=C(O)C(=O)O (centres unmarked) [Compound 13, 1-(3-(4-(tert-Butyl)phenoxy)propyl)-2-methylpyrrolidine hydrogen oxalate]			4 ± 0.3	Free enzyme ≈ enzyme-substrate complex	noncompetitive inhibition	Lines intersect to the left of y-axis directly on x-axis	No effect ^a	↓ curvilinearly with ↑ [I]	↓ curvilinearly with ↑ [I]	did not show differences between the variants	reversible inhibition	12	48.38 ± 12.02	91.7% and > 90%
